Data published in patent US8558002B2, “Sulfoximines as kinase inhibitors” (Allergan, Inc., priority 2006, dated 2013).

Columns and labels:
PDGFRβ = molecular target: T1, PDGFRβ (Homo sapiens, UniProt P09619); assay: PDGFRβ Kinase Assay (poly-Glu-Tyr ELISA); assay type: biochemical; settings: purified cytoplasmic domain PDGFR-b protein, 36 μM ATP
T1 construct: 200-300 ng purified cytoplasmic domain PDGFR-b protein (Millipore); purchased Millipore
Experimental: Biochemical PDGFRβ kinase assays were performed in 96 well microtiter plates that were coated overnight with 75 μg of poly-Glu-Tyr (4:1) in 10 mM Phosphate Buffered Saline (PBS), pH 7.4. The coated plates were washed with 2 mls per well PBS+0.05% Tween-20 (PBS-T), blocked by incubation with PBS containing 1% BSA, then washed with 2 mls per well PBS-T prior to starting the reaction. Reactions were carried out in 100 μL reaction volumes containing 36 μM ATP in kinase buffer (50 mM Hepes buffer pH 7.4, 20 mM MgCl2, 0.1 mM MnCl2 and 0.2 mM Na3VO4). Test compounds were reconstituted in 100% DMSO and added to the reaction to give a final DMSO concentration of 5%. Reactions were initiated by the addition 20 ul per well of kinase buffer containing 200-300 ng purified cytoplasmic domain PDGFR-b protein (Millipore). Following a 60 minute incubation at 30° C., the reactions were washed 2 mls per well PBS-T. […] of a monoclonal anti-phosphotyrosine antibody-peroxidase conjugate diluted 1:10,000 in PBS-T was added to the wells for 30 minutes. Following a 2 mls per well wash with PBS-Tween-20, 100 μl of O-Phenylenediamine Dihydrochloride in phosphate-citrate buffer, containing urea hydrogen peroxide, was added to the wells for 7-10 minutes as a colorimetric substrate for the peroxidase. The reaction was terminated by the addition of 100 μl of 2.5N H2SO4 to each well and read using a microplate ELISA reader set at 492 nm. IC50 values for compound inhibition were calculated directly from graphs of optical density (arbitrary units) versus compound concentration following subtraction of blank values.

VEGFR1 = VEGFR1 (Homo sapiens, UniProt P17948); assay: VEGFR1 Kinase; assay type: biochemical
Sequence of VEGFR1 (P17948 27-1338, species assumed): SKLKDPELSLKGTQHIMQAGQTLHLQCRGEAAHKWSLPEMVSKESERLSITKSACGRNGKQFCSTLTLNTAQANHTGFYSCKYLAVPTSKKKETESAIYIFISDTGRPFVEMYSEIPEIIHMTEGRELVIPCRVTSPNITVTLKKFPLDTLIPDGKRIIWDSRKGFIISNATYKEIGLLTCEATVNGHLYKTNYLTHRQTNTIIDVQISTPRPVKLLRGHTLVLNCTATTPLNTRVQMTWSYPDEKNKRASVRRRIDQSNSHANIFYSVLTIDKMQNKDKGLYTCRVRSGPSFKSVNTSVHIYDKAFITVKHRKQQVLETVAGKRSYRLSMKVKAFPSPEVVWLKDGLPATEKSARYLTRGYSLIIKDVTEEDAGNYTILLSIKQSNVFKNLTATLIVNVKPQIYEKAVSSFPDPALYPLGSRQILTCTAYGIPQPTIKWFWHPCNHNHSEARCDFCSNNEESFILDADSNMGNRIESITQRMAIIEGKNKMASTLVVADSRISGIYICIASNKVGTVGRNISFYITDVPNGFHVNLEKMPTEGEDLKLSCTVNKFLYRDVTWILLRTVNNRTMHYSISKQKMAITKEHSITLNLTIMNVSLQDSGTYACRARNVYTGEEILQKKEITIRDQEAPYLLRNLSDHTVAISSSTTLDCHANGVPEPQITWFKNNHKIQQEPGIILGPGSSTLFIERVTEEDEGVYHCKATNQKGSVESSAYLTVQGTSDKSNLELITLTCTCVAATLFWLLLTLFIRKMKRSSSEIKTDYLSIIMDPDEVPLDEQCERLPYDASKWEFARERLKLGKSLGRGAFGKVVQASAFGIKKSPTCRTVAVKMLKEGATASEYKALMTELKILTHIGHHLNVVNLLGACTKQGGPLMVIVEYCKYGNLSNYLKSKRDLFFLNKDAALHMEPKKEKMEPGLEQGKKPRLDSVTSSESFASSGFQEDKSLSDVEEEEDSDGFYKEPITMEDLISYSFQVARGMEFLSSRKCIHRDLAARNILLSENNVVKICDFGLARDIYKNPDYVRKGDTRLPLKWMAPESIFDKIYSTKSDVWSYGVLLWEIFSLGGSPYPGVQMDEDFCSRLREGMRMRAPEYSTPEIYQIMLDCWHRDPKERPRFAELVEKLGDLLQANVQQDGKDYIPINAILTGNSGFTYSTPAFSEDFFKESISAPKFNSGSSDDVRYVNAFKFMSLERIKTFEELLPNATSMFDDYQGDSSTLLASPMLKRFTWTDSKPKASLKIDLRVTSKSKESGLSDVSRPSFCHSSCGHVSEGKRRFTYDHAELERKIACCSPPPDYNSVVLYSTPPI

VEGFR2 [1] = molecular target: T2, VEGFR2 (Homo sapiens, UniProt P35968); assay: VEGFR2 Cellular Assay (FLIPR, VEGF induced increases in intracellular calcium in HUVEC); assay type: cell-based; design: host or cells: HUVEC; settings: VEGF165 stimulation (10 ng/mL), Fluo-4
Experimental: Automated FLIPR (Fluorometric Imaging Plate Reader) technology was used to screen for inhibitors of VEGF induced increases in intracellular calcium levels in fluorescent dye loaded endothelial cells. HUVEC (human umbilical vein endothelial cells) (Clonetics) were seeded in 384-well fibronectin coated black-walled plates overnight @ 37° C./5% CO2. Cells were loaded with calcium indicator Fluo-4 for 45 minutes at 37° C. Cells were washed 2 times (El×405, Biotek Instruments) to remove extracellular dye. For screening, cells were pre-incubated with test agents for 30 minutes, at a single concentration (10 uM) or at concentrations ranging from 0.0001 to 10.0 uM followed by VEGF165 stimulation (10 ng/mL). Changes in fluorescence at 516 nm were measured simultaneously in all 384 wells using a cooled CCD camera. Data were generated by determining max-min fluorescence levels for unstimulated, stimulated, and drug treated samples. IC50 values for test compounds were calculated from % inhibition of VEGF stimulated responses in the absence of inhibitor.
Target sequence in this assay (P35968 20-1356): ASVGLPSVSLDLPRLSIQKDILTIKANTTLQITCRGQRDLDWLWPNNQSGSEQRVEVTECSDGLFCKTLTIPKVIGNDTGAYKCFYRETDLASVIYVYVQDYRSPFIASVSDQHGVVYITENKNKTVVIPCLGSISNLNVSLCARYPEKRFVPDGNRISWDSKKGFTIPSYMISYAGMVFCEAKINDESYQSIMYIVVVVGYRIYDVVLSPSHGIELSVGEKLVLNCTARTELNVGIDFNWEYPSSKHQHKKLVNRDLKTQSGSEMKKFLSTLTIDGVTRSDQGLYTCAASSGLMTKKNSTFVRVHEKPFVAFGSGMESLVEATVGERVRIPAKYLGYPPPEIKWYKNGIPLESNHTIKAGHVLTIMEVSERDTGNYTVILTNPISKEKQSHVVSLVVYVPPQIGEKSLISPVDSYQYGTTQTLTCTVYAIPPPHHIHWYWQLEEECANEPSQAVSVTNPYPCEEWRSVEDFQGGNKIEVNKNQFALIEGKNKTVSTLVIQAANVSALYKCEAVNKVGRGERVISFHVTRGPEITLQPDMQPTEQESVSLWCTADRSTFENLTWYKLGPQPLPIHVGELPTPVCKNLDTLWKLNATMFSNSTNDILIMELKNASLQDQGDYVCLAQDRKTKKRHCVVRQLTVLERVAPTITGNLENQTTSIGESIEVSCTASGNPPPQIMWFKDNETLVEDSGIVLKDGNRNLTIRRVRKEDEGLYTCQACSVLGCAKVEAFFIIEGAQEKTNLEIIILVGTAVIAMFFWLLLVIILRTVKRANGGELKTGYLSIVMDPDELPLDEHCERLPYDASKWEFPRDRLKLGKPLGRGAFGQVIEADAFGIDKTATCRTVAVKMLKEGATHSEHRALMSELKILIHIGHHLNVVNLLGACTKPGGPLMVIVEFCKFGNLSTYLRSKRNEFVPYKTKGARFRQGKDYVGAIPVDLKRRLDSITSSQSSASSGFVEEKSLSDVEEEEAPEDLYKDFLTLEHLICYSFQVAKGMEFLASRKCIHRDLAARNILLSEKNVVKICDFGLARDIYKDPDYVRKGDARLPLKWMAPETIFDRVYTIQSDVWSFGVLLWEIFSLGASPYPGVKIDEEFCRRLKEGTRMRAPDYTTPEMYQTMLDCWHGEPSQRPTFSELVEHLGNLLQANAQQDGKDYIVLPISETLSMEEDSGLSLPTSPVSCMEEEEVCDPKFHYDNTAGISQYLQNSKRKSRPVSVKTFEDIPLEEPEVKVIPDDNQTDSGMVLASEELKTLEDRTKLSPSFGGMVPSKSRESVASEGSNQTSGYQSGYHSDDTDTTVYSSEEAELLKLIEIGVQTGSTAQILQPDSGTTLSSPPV

VEGFR2 [2] = molecular target: T2, VEGFR2; assay: VEGFR2 Kinase Assay (biochemical KDR kinase, poly-Glu-Tyr ELISA); design: 200-300 ng purified cytoplasmic domain KDR protein; purchased BPS Bioscience; settings: purified cytoplasmic domain KDR protein, 2.7 μM ATP
Experimental: Biochemical KDR kinase assays were performed in 96 well microtiter plates that were coated overnight with 75 μg/well of poly-Glu-Tyr (4:1) in 10 mM Phosphate Buffered Saline (PBS), pH 7.4. The coated plates were washed with 2 mls per well PBS+0.05% Tween-20 (PBS-T), blocked by incubation with PBS containing 1% BSA, then washed with 2 mls per well PBS-T prior to starting the reaction. Reactions were carried out in […] reaction volumes containing 2.7 μM ATP in kinase buffer (50 mM Hepes buffer pH 7.4, 20 mM MgCl2, 0.1 mM MnCl2 and 0.2 mM Na3VO4). Test compounds were reconstituted in 100% DMSO and added to the reaction to give a final DMSO concentration of 5%. Reactions were initiated by the addition 20 ul per well of kinase buffer containing 200-300 ng purified cytoplasmic domain KDR protein (BPS Bioscience, San Diego, Calif.). Following a 15 minute incubation at 30° C., the reactions were washed 2 mls per well PBS-T. 100 μl of a monoclonal anti-phosphotyrosine antibody-peroxidase conjugate diluted 1:10,000 in PBS-T was added to the wells for 30 minutes. Following a 2 mls per well wash with PBS-Tween-20, 100 μl of O-Phenylenediamine Dihydrochloride in phosphate-citrate buffer, containing urea hydrogen peroxide, was added to the wells for 7-10 minutes as a colorimetric substrate for the peroxidase. The reaction was terminated by the addition of 100 μl of 2.5NH2SO4 to each well and read using a microplate ELISA reader set at 492 nm. IC50 values for compound inhibition were calculated directly from graphs of optical density (arbitrary units) versus compound concentration following subtraction of blank values.
Target sequence in this assay (P35968 786-1356 limits assumed): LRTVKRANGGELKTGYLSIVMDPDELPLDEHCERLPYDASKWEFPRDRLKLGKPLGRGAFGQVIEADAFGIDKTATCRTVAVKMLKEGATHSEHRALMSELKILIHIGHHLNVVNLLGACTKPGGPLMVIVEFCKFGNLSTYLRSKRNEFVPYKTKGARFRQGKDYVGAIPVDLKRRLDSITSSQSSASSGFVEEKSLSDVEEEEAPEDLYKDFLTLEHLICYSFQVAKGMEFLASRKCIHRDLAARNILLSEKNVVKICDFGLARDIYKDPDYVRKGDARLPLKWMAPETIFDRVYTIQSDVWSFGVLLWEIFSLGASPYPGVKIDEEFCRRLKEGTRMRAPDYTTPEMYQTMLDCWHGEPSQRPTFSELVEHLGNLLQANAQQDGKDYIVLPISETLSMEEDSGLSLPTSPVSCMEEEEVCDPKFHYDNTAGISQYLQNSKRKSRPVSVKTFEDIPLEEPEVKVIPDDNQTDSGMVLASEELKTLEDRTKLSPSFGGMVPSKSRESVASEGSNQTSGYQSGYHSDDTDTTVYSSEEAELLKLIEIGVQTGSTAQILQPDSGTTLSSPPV

T1 sequence (P09619 554-1106 limits assumed): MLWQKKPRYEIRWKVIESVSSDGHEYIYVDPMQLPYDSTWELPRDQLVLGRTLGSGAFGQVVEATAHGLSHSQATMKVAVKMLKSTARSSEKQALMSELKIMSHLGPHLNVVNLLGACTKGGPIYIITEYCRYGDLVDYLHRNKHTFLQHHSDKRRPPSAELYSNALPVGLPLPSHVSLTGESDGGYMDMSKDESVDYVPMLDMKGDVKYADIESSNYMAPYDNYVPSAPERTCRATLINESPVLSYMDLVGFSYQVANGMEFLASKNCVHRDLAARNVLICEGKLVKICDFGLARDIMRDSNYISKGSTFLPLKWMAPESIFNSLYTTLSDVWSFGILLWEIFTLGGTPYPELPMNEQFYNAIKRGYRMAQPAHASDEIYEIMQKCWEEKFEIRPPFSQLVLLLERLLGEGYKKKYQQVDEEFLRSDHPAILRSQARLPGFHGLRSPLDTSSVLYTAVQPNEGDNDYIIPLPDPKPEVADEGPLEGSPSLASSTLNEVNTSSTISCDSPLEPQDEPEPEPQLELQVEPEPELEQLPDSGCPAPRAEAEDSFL

| SMILES | IC50 (PDGFRβ) [nM] | IC50 (VEGFR1) [nM] | IC50 (VEGFR2 [1]) [nM] | IC50 (VEGFR2 [2]) [nM] |
| --- | --- | --- | --- | --- |
| COC(=O)CCCCS(=O)(CCCCC(=O)OC)=NC(=O)c1cnc(N)c(C#Cc2ccc(NC(=O)Nc3cc(C)ccc3F)cc2)c1 [Example 19, Dimethyl 5,5′-{N-[(6-amino-5-{[4-({[(2-fluoro-5-methylphenyl)amino]carbonyl}amino)phenyl]ethynyl}pyridin-3-yl)carbonyl]sulfonimidoyl}dipentanoate] | 20 | 23 | 5 | 13 |
| COC(=O)CCCCS(=O)(CCCCC(=O)OC)=NC(=O)c1cnc(N)c(C#Cc2cccc(NC(=O)c3cc(C)ccc3F)c2)c1 [Example 7, Dimethyl 5,5′-(N-{[6-amino-5-({3-[(2-fluoro-5-methylbenzoyl)amino]phenyl}ethynyl)pyridin-3-yl]carbonyl}sulfonimidoyl)dipentanoate] | 29 | 13 | 49 | 11 |
